Tested on: DRG neurons
Assay: Membrane depolarization and action potentials in DRG neurons (current clamp)
Format: cell-based, rat
Description: Primary DRG neuronal cultures were prepared from embryonic day 18 (E18) rat embryos. Adult pregnant rats were killed with an overdose of isoflurane. DRG were dissected and the cells were dissociated by triturating with a fire-polished glass pipette. Cells were cultured in Neurobasal medium (Life Technologies, Buffalo, N.Y., USA), supplemented with 10% fetal bovine serum (FBS), and grown on poly-D-lysine-coated glass coverslips. Cells were used from 5 to 15 days after plating. Small diameter (<30 μm) rounded neurons were selected for patch-clamp experiments. […] The Giga-seal patch-clamp technique was used to record whole-cell currents. For perforated-patch recordings, the bath solution contained (mM): sodium gluconate 140, KCl 2.5, Hepes 10, MgCl2 1 and ethylene glycol bis(2-aminoethyl ether)-N,N,N′N′-tetraacetic acid (EGTA) 1.5 (pH adjusted to 7.35 with NaOH), and the pipette solution contained (mM): sodium gluconate 130, NaCl 10, KCl 2.5, Hepes 10, MgCl2 1, EGTA 1.5 and 240 μg/ml^−1 amphotericin B (pH adjusted to 7.35 with NaOH). For current-clamp experiments the pipette solution contained (mM): potassium gluconate 130, NaCl 10, MgCl2 1, EGTA 0.2, K2ATP 1 and Hepes 10; pH adjusted to 7.35 with NaOH. Extracellular solution for current- and voltage-clamp experiments contained (mM): NaCl 140, KCl 4, MgCl2 1 and Hepes 10; pH adjusted to 7.35 with NaOH. Currents were recorded using a WPC 100 patch-clamp amplifier (E.S.F. Electronic, Goettingan, Germany). Data were filtered at 10 kHz, digitized (VR-10B, Instrutech Corp., Great Neck, N.Y., USA) and stored on videotapes or directly stored in the computer using a LabView interface. For analysis of whole-cell currents, data were filtered at 1 kHz (−3 db frequency with an 8-pole low-pass Bessel filter, Warner Instruments, LPF-8) and digitized at 2 kHz.
To attribute a physiological significance to the slow and irreversible action of RTX, we recorded membrane depolarization in current-clamp conditions. Action potentials in response to a current injection (10-100 pA) were recorded in order to confirm that the neurons were excitable (inset to FIGS. 9A and B). The average membrane potential was −57.1±1 mV (n=42).

| SMILES | membrane depolarization (RTX 3 pM) | number of action potentials (RTX 3 pM) | number of action potentials (RTX 10 pM) | membrane depolarization (RTX 10 nM) | number of action potentials (RTX 10 nM) | membrane depolarization (RTX 1 μM) | number of action potentials (RTX 1 μM) | membrane depolarization (RTX 10 μM (so in the source)) | membrane depolarization (RTX 100 μM (so in the source)) | number of action potentials (RTX ˜100 pM) | membrane depolarization (capsaicin 30 nM) | number of action potentials (capsaicin 30 nM) |
| --- | --- | --- | --- | --- | --- | --- | --- | --- | --- | --- | --- | --- |
| C=C(C)[C@]12C[C@@H](C)[C@@]34O[C@](Cc5ccccc5)(O[C@@H]1[C@@H]3C=C(COC(=O)Cc1ccc(O)c(OC)c1)C[C@]1(O)C(=O)C(C)=C[C@@H]41)O2 [RTX, resiniferatoxin] | 10.6±1.6 mV | 16.6±8.3 | 24.6±6.9 | 32.2±5.1 mV | 24.5±8.6 | 52±2 mV | 14.6±4.6 | 14.1±1.5 mV | 16.3±3 mV | 77.8±11.8 | – | – |
| COc1cc(CNC(=O)CCCC/C=C/C(C)C)ccc1O [capsaicin] | – | – | – | – | – | – | – | – | – | – | 13.3±3.5 mV | 54.2±10.5 |

— patent US20090209633A1, “Treatment of Pain With Resiniferatoxin and Related Analogs” (priority 2006, published 2009)
